What was measured:
Assay in all cases: relative viability (nuclei count vs DMSO), 5 days (fraction); higher = more cells survive
[1] = compound: COc1cc2ncn(-c3cc(OCc4ccccc4C(F)(F)F)c(C(N)=O)s3)c2cc1OC + Cc1nc(NC(=O)N2CCC[C@H]2C(N)=O)sc1-c1ccnc(C(C)(C)C(F)(F)F)c1 [Alpelisib] (partner 2 µM)
Outline: (§1)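 A single step with final 0.05% Triton X-100, 1% formaldehyde and 1 ug/ml Hoechst fixed the cells and stained nuclei 5 days after treatment. Lung cancer cell lines in 1536-well plates had been treated by pin tool the day after seeding with one drug alone or a fixed anchor-drug dose plus five library-drug doses (not always all listed) in √10 steps, and nuclei were counted on 4× images. Relative viability is the ratio of nuclei in treated wells to nuclei in vehicle wells, taken as the median of duplicate plates.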

[2] = compound: COc1cc2ncn(-c3cc(OCc4ccccc4C(F)(F)F)c(C(N)=O)s3)c2cc1OC + O=C(CCCCCCC(=O)Nc1ccccc1)NO [Vorinostat] (partner 1 µM)
Outline: as §1

[3] = compound: COc1cc2ncn(-c3cc(OCc4ccccc4C(F)(F)F)c(C(N)=O)s3)c2cc1OC + C[C@]1(O)C[C@@H](c2nc(-c3ccc4ccc(-c5ccccc5)nc4c3)c3c(N)nccn32)C1 [Linsitinib] (partner 1 µM)
Outline: as §1

[4] = compound: COc1cc2ncn(-c3cc(OCc4ccccc4C(F)(F)F)c(C(N)=O)s3)c2cc1OC + CC1(C)CCC(c2ccc(Cl)cc2)=C(CN2CCN(c3ccc(C(=O)NS(=O)(=O)c4ccc(N[C@H](CCN5CCOCC5)CSc5ccccc5)c(S(=O)(=O)C(F)(F)F)c4)cc3)CC2)C1 [Navitoclax] (partner 0.5 µM)
Outline: as §1

Row | Cell Line | relative viability ([1]; first compound 0.05 µM) | relative viability ([1]; first compound 0.1581 µM) | relative viability ([1]; first compound 0.5 µM) | relative viability ([1]; first compound 1.581 µM) | relative viability ([1]; first compound 5 µM) | relative viability ([2]; first compound 0.05 µM) | relative viability ([2]; first compound 0.1581 µM) | relative viability ([2]; first compound 0.5 µM) | relative viability ([2]; first compound 1.581 µM) | relative viability ([2]; first compound 5 µM) | relative viability ([3]; first compound 0.05 µM) | relative viability ([3]; first compound 0.1581 µM) | relative viability ([3]; first compound 0.5 µM) | relative viability ([3]; first compound 1.581 µM) | relative viability ([3]; first compound 5 µM) | relative viability ([4]; first compound 0.05 µM) | relative viability ([4]; first compound 0.1581 µM) | relative viability ([4]; first compound 0.5 µM) | relative viability ([4]; first compound 1.581 µM) | relative viability ([4]; first compound 5 µM)
1 | NCI-H2085 | 1.01 | 0.959 | 0.75 | 0.4 | 0.386 | 0.722 | 0.796 | 0.541 | 0.386 | 0.302 | 0.885 | 0.731 | 0.601 | 0.168 | 0.416 | 1.2 | 1.09 | 0.593 | 0.367 | 0.365
2 | IA-LM | 0.701 | 0.493 | 0.107 | 0.0655 | 0.0465 | 0.916 | 0.803 | 0.241 | 0.0678 | 0.0714 | 0.58 | 0.606 | 0.172 | 0.0675 | 0.0619 | 0.89 | 0.411 | 0.0188 | 0.0121 | 0.0246
3 | H3255 | 0.626 | 0.796 | 0.444 | 0.335 | 0.233 | 0.806 | 0.492 | 0.627 | 0.606 | 0.481 | 0.858 | 0.962 | 0.533 | 0.248 | 0.228 | 0.558 | 0.314 | 0.363 | 0.125 | 0.101
4 | LOU-NH91 | 0.705 | 0.843 | 0.626 | 0.447 | 0.488 | 0.903 | 1.04 | 0.683 | 0.365 | 0.29 | 0.94 | 1.05 | 0.824 | 0.526 | 0.595 | 0.715 | 0.816 | 0.592 | 0.445 | 0.399
5 | NCI-H3122 | 0.842 | 0.514 | 0.203 | 0.149 | 0.197 | 1 | 0.596 | 0.357 | 0.13 | 0.13 | 0.943 | 1.07 | 0.256 | 0.184 | 0.221 | 1.05 | 1.01 | 0.212 | 0.189 | 0.202
6 | RERF-LC-KJ | 0.859 | 0.849 | 0.515 | 0.294 | 0.622 | 0.696 | 0.626 | 0.33 | 0.287 | 0.345 | 0.806 | 0.901 | 0.559 |  | 0.357 | 0.993 | 0.874 | 0.416 | 0.23 | 0.414
7 | NCI-H1651 | 0.98 | 0.95 | 0.777 | 0.111 | 0.0858 | 0.504 | 0.51 | 0.309 | 0.164 | 0.324 | 1 | 1.14 | 0.528 | 0.117 | 0.0945 | 1.12 | 1.24 | 0.835 | 0.0858 | 0.0692
8 | NCI-H2087 | 1.18 | 0.953 | 0.311 | 0.169 | 0.142 | 0.639 | 0.573 | 0.163 | 0.0594 | 0.121 | 0.995 | 0.981 | 0.307 | 0.168 | 0.195 | 1.04 | 0.974 | 0.194 | 0.136 | 0.134

— the supplement of paper PMC10307832
